Measured values as given in BindingDB's records for doi:10.3109/14756366.2013.777334 (S.G.S.I.T.S., 2014).

Key:
Test in all cases: CA Inhibition Assay
Conditions in all cases: pH 7.5; 4 °C
Carbonic anhydrase 12 = Carbonic anhydrase 12 (Homo sapiens, UniProt O43570)
Description: (§1) An applied photophysics stopped-flow instrument has been used for assaying the CA catalyzed CO2 hydration activity. […] The CO2 concentrations ranged from 1.7 to 17mM for the determination of the kinetic parameters and inhibition constants. […] The uncatalyzed rates were determined in the same manner and subtracted from the total observed rates. Stock solutions of inhibitor (0.1mM) were prepared in distilled-deionized water and dilutions up to 0.01nM were done thereafter with distilled deionized water.

Carbonic anhydrase 1 = Carbonic anhydrase 1 (Homo sapiens, UniProt P00915)
Description: as §1

Carbonic anhydrase 2 = Carbonic anhydrase 2 (Homo sapiens, UniProt P00918)
Description: as §1

Carbonic anhydrase 1, sequence (P00915 whole entry): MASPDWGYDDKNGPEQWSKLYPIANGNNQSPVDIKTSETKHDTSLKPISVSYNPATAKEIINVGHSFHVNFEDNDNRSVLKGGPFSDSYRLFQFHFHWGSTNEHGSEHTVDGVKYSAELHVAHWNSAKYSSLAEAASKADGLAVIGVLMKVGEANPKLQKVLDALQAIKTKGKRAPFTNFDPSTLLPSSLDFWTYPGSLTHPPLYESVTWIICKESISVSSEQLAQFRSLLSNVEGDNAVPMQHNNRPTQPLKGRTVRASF
Carbonic anhydrase 12, sequence (O43570 whole entry): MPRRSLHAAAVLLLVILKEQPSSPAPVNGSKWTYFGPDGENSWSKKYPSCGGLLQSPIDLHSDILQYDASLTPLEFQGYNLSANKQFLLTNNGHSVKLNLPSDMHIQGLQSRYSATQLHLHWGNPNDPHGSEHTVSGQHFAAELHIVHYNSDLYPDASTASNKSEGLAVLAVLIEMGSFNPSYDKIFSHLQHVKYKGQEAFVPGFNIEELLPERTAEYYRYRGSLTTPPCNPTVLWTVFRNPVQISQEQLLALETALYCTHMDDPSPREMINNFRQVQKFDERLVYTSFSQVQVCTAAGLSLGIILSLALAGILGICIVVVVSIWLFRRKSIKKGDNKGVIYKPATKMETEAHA

Row | Compound | Ki (Carbonic anhydrase 12) [µM] | Ki (Carbonic anhydrase 1) [µM] | Ki (Carbonic anhydrase 2) [µM]
1 | Cc1cc(=O)oc2cc3ccccc3cc12 [4-Methyl-2H-benzo[g]chromen-2-one (5)] | 3.3 | 8.2 | > 200
2 | Cc1cc(=O)oc2c1ccc1ccccc12 [4-Methyl-2H-benzo[h]chromen-2-one (4)] | 5.5 | 9 | > 200
3 | Cc1cc(=O)oc2cc(O)ccc12 [4-Methyl-7-hydroxycoumarin] | 4.3 | 4.8 | > 200
4 | Cc1cc(=O)oc2c(O)c(O)ccc12 [7,8-Dihydroxy-4-methyl-2H-chromen-2-one (3)] | 6.6 | 8.7 | > 200
5 | Cc1cc(=O)oc2cc(O)cc(O)c12 [Coumarin derivative, 1b] | 6.4 | 8.4 | 
